Data: patent US20040258733A1, “Breath Freshening and Oral Cleansing Product Using Salicylaldehyde” (priority 2002, published 2004)
≈ marks a conversion by molar mass, not a printed value.

Tests used:
Assay type in all cases: cell-based
Fusobacterium nucleatum [1] = assay: MBC determination, plating on blood agar; settings: F. nucleatum, lowest concentration that killed at least 99.9% of initial inoculum, plates 48 hours at 37° C., read-out: MBC (minimum bactericidal concentration)
Description: (§1) The MBC (Minimum bactericidal concentrations) were determined using the 96 well microtiter plate serial dilutions as described above for MIC studies. Serial dilution of cultures in wells showing no visible growth were performed and 10 microliters of culture were plated in triplicate on blood agar plates. Viable colonies were scored after incubation of the plates for 48 hours at 37° C. For each test bacterium, the number of CFU/ml were determined in the initial inoculum. The MBC was defined as the lowest concentration of a test compound that killed at least 99.9% of the cells present in the initial inoculum.

Porphyromonas gingivalis [2] = assay: MBC determination, plating on blood agar; settings: P. gingivalis, lowest concentration that killed at least 99.9% of initial inoculum, plates 48 hours at 37° C., read-out: MBC (minimum bactericidal concentration)
Description: as §1

Fusobacterium nucleatum [3] = assay: MIC study, 96 well microtiter plate serial dilution; settings: F. nucleatum, 37° C., 48 hours, turbidity at 660 nm, read-out: MIC (minimum inhibitory concentration)
Description: (§2) In vitro tests were conducted with a gram positive supragingival plaque bacterium, Streptococcus mutans. In addition, two subgingival plaque bacteria associated with oral malodor were tested, Porphyromonas gingivalis and Fusobacterium nucleatum. The MIC (Minimum Inhibitory Concentrations) study protocol is as follows. Chlorhexidine was used as a positive control and sterile water was used as a negative control. Salicylaldehyde was suspended in 10% methanol with 3.8% Tween 80. […] 96 well microtiter plates were used for this study. Each well contained […] of bacteria, serially diluted agents and bacterial growth medium. All bacterial cultures were incubated at 37° C. and stationary. Bacterial growth was estimated spectrophotometrically at 660 nm, after 48 hours. The MIC for each test bacteria was defined as the minimum concentration of test compound limiting turbidity to […].

Porphyromonas gingivalis [4] = assay: as above; settings: P. gingivalis, 37° C., 48 hours, turbidity at 660 nm, read-out: MIC (minimum inhibitory concentration)
Description: as §2

Streptococcus mutans = assay: as above
Description: as §2

Row | Compound | MBC (Fusobacterium nucleatum [1]) [µg/mL] | MBC (Porphyromonas gingivalis [2]) [µg/mL] | MIC (Fusobacterium nucleatum [3]) [µg/mL] | MIC (Porphyromonas gingivalis [4]) [µg/mL] | effectiveness against S. mutans (in words) (Streptococcus mutans) | MIC (Streptococcus mutans; Streptococcus mutans, S. mutans, 37° C., 48 hours, turbidity at 660 nm, read-out: MIC (minimum inhibitory concentration)) [µg/mL]
1 | [H]/N=C(\N/C(=N/[H])NCCCCCCNC(=N)NC(=N)Nc1ccc(Cl)cc1)Nc1ccc(Cl)cc1 [Cholorhexidine, Chlorhexidine, reference compound] | 1.25 (≈ 2.47 µM) | 1.25 (≈ 2.47 µM) | 1.25 (≈ 2.47 µM) | 1.25 (≈ 2.47 µM) |  | 
2 | O=Cc1ccccc1O [salicylaldehyde] | 15.6 (≈ 128 µM) | 250 (≈ 2050 µM) | 7.8 (≈ 63.9 µM) | 125 (≈ 1020 µM) | not exceptionally effective | 1000 (≈ 8190 µM)
